Target: PIK3CG (human) (UniProt P48736)
Assay: Assessment of PIK3CG Kinase Activity

Sequence of PIK3CG (human) (P48736 whole entry, looked up): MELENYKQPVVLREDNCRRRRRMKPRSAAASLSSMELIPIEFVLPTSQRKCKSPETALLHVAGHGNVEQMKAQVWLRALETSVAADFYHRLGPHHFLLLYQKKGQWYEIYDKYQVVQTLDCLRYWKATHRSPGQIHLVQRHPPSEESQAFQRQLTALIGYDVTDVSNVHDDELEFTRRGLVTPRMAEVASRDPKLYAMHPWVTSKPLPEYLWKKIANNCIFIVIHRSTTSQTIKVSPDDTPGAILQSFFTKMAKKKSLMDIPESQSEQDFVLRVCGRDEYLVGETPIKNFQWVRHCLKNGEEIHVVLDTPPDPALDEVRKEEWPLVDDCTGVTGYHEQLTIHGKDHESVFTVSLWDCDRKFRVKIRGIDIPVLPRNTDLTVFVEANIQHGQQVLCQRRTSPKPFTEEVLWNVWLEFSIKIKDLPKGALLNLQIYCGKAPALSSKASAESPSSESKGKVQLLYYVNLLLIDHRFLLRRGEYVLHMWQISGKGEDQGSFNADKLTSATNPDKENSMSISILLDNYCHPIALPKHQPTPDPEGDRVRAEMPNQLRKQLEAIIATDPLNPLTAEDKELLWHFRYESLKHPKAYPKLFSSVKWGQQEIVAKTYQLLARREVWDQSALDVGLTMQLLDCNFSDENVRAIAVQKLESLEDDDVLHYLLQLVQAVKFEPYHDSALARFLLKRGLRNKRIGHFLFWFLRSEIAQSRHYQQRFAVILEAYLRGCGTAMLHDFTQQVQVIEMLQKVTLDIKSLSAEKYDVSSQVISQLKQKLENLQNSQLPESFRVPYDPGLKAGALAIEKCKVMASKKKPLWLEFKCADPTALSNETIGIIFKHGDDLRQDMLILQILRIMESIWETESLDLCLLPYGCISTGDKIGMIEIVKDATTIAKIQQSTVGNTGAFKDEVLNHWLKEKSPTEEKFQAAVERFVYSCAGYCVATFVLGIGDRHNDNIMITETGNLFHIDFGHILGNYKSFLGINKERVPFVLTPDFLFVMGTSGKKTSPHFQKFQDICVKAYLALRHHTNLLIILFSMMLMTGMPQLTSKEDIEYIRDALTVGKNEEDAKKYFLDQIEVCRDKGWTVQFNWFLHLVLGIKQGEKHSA

IC50, < 800 nM:
CC(C)N1CC(=O)N(C)c2cnc(Nc3cc(NS(C)(=O)=O)cc(C(=O)NCCC4CCCN4C)c3)nc21 (configuration not stated)
CC(C)N1CC(=O)N(C)c2cnc(Nc3cc(NC(=O)Cc4ccccc4)cc(S(C)(=O)=O)c3)nc21
CC(C)N1CC(=O)N(C)c2cnc(Nc3cc(NS(C)(=O)=O)cc(C(=O)NCCc4ccccn4)c3)nc21
CC(C)N1CC(=O)N(C)c2cnc(Nc3cc(NC(=O)Cc4cc5cc(F)ccc5[nH]4)cc(S(C)(=O)=O)c3)nc21
CC(C)N1CC(=O)N(C)c2cnc(Nc3cccc(S(=O)(=O)C(C)C)c3)nc21
CC(C)N1CC(=O)N(C)c2cnc(Nc3cc(NS(=O)(=O)c4ccc(N5CCOCC5)nc4)cc(S(N)(=O)=O)c3)nc21
CC(C)N1CC(=O)N(C)c2cnc(Nc3cc(NC(=O)c4ccsc4)cc(S(C)(=O)=O)c3)nc21
CC(C)N1CC(=O)N(C)c2cnc(Nc3cc(NC(=O)NCC4CC4)cc(S(C)(=O)=O)c3)nc21
CN=[S@@](C)(=O)c1cccc(Nc2ncc3c(n2)N(C(C)C)CC(=O)N3C)c1
CC(C)N1CC(=O)N(C)c2cnc(Nc3cc(NC(=O)N[C@H]4CCN(C(=O)OC(C)(C)C)C4)cc(S(C)(=O)=O)c3)nc21
CC(C)N1CC(=O)N(C)c2cnc(Nc3cc(NC(=O)Cc4nnn[nH]4)cc(S(C)(=O)=O)c3)nc21
CC(C)N1CC(=O)N(C)c2cnc(Nc3cc(N(C)C(=O)Cc4cccc(Cl)c4)cc(S(C)(=O)=O)c3)nc21
CC(C)N1CC(=O)N(C)c2cnc(Nc3cc(NC(=O)NCCCN(C)C)cc(S(C)(=O)=O)c3)nc21
CC(C)N1CC(=O)N(C)c2cnc(Nc3cc(NC(=O)NC[C@@H]4CCCO4)cc(S(C)(=O)=O)c3)nc21
CC(C)N1CC(=O)N(C)c2cnc(Nc3cc(NC(=O)[C@@H]4CCCN(C5CCCC5)C4)cc(S(C)(=O)=O)c3)nc21
CC(C)N1CC(=O)N(C)c2cnc(Nc3cc(C(=O)NCCCN(C)C)cc(S(C)(=O)=O)c3)nc21
CC(C)N1CC(=O)N(C)c2cnc(Nc3cc(NC(=O)[C@@H]4CCCN4)cc(S(C)(=O)=O)c3)nc21
CC(C)N1CC(=O)N(C)c2cnc(Nc3cc(NS(=O)(=O)CC4CCCCC4)cc(S(C)(=O)=O)c3)nc21
CC(C)N1CC(=O)N(C)c2cnc(Nc3cc(NC(=O)N[C@H]4CCN(C5CCCC5)C4)cc(S(C)(=O)=O)c3)nc21
CN1C(=O)CN(c2ccccc2)c2nc(Nc3cccc(S(=O)(=O)CCN4CCCCC4)c3)ncc21
CC(C)N1CC(=O)N(C)c2cnc(Nc3cc(NC(=O)[C@H]4CCCN(C5CCCC5)C4)cc(S(C)(=O)=O)c3)nc21
Cc1c[nH]c(CCNC(=O)c2cc(Nc3ncc4c(n3)N(C(C)C)CC(=O)N4C)cc(NS(C)(=O)=O)c2)n1
CC(C)N1CC(=O)N(C)c2cnc(Nc3cc(NC(=O)C[C@H]4CCNC4)cc(S(C)(=O)=O)c3)nc21
CC(C)N1CC(=O)N(C)c2cnc(Nc3cccc(S(=O)(=O)CCN(C)C)c3)nc21
CC(C)N1CC(=O)N(C)c2cnc(Nc3cc(C(=O)NC4CCN(C)CC4)cc(S(C)(=O)=O)c3)nc21
CC(C)N1CC(=O)N(C)c2cnc(Nc3cc(NC(=O)[C@@H]4CCCN4C4CCCC4)cc(S(C)(=O)=O)c3)nc21
CC(C)N1CC(=O)N(C)c2cnc(Nc3cc(NC(=O)Cc4c[nH]c5ccccc45)cc(S(C)(=O)=O)c3)nc21
CC(C)N1CC(=O)N(C)c2cnc(Nc3cc(C(=O)NCc4ccncc4)cc(S(C)(=O)=O)c3)nc21
CC(C)N1CC(=O)N(C)c2cnc(Nc3cc(NC(=O)NC[C@@H]4CCCN4)cc(S(C)(=O)=O)c3)nc21
CC(C)N1CC(=O)N(C)c2cnc(Nc3cc(C(F)(F)F)cc(S(C)(=O)=O)c3)nc21
CC(C)N1CC(=O)N(C)c2cnc(Nc3cc(CS(C)(=O)=O)cc(C(F)(F)F)c3)nc21
CNC(=O)Nc1cc(Nc2ncc3c(n2)N(C(C)C)CC(=O)N3C)cc(S(C)(=O)=O)c1
CC(C)N1CC(=O)N(C)c2cnc(Nc3cc(NC(=O)Cc4cccc(Cl)c4)cc(S(C)(=O)=O)c3)nc21
CCC(C)Nc1cc(Nc2ncc3c(n2)N(C(C)C)CC(=O)N3C)cc(S(C)(=O)=O)c1 (configuration not stated)
CC(C)N1CC(=O)N(C)c2cnc(Nc3cc(Nc4ccc(CN5CCN(C)CC5)cc4)cc(S(C)(=O)=O)c3)nc21
CC(C)N1CC(=O)N(C)c2cnc(Nc3cc(C(=O)NCCN4CCNC4=O)cc(C(F)(F)F)c3)nc21
CC(C)N1CC(=O)N(C)c2cnc(Nc3cc(NC(=O)N[C@H]4CC[C@@H](N)CC4)cc(S(C)(=O)=O)c3)nc21
Cc1oncc1C(=O)Nc1cc(Nc2ncc3c(n2)N(C(C)C)CC(=O)N3C)cc(S(C)(=O)=O)c1
CC(C)N1CC(=O)N(C)c2cnc(Nc3cc(NS(=O)(=O)c4cccnc4)cc(S(N)(=O)=O)c3)nc21
CC(C)N1CC(=O)N(C)c2cnc(Nc3cc(NC(=O)NC[C@H]4CCNC4)cc(S(C)(=O)=O)c3)nc21
CC(C)N1CC(=O)N(C)c2cnc(Nc3cc(C(=O)NCCN4CCNC4=O)cc(S(C)(=O)=O)c3)nc21
CC[C@@H]1CN(c2cccc(Nc3ncc4c(n3)N(C(C)C)CC(=O)N4C)c2)C(=O)CN1C
CC(C)N1CC(=O)N(C)c2cnc(Nc3cc(NC(=O)N[C@@H]4CCN(C5CCCC5)C4)cc(S(N)(=O)=O)c3)nc21
CC(C)N1CC(=O)N(C)c2cnc(Nc3cc(N(C)C(=O)N[C@H]4CCN(C5CCCC5)C4)cc(S(C)(=O)=O)c3)nc21
CC(C)N1CC(=O)N(C)c2cnc(Nc3cc(NS(C)(=O)=O)cc(C(=O)NCCN(C)C)c3)nc21
CC(C)N1CC(=O)N(C)c2cnc(Nc3cc(NC(=O)N[C@H]4CCN(C5CCCC5)C4)cc(S(N)(=O)=O)c3)nc21
CNC(=O)c1cc(Nc2ncc3c(n2)N(C(C)C)CC(=O)N3C)cc(C(F)(F)F)c1
Cc1[nH]c2ccccc2c1CC(=O)Nc1cc(Nc2ncc3c(n2)N(C(C)C)CC(=O)N3C)cc(S(C)(=O)=O)c1
CC(C)N1CC(=O)N(C)c2cnc(Nc3cc(NC(=O)c4cccc(C#N)c4)cc(S(C)(=O)=O)c3)nc21
CC(C)N1CC(=O)N(C)c2cnc(Nc3cc(NC(=O)NCc4ccccc4)cc(S(C)(=O)=O)c3)nc21
CC(C)N1CC(=O)N(C)c2cnc(Nc3cc(NC(=O)c4csc5ccccc45)cc(S(C)(=O)=O)c3)nc21
Cc1cc(CNC(=O)Nc2cc(Nc3ncc4c(n3)N(C(C)C)CC(=O)N4C)cc(S(C)(=O)=O)c2)n[nH]1
